Data published in publication PMC11475570, “Impact of Optimized Ku–DNA Binding Inhibitors on the Cellular and In Vivo DNA Damage Response” (Cancers, 2024).

Experiments:
H23 = assay: CCK-8 cell viability, single agent; format: cell-based, Human; settings: Homo sapiens
Method: (§1) Cell metabolism/viability was assessed using a mitochondrial metabolism assay (CCK-8) kit (Cell Counting Kit-8, Cat: CK04, Dojindo Laboratories, Rockville, MD, USA) as previously described. Briefly, cells were seeded at a density of 3 × 10^3 cells per well in 96-well plates and allowed to adhere and stretch for 18–24 h prior to treatment. Cells were pre-treated with Ku-DBi for 24 h before bleomycin treatments. Subsequently, cells were incubated for an additional 48 h at 37 °C after which CCK-8 assay was performed. The absorbance of the formed formazan product in each well was measured at 450 nm and compared to vehicle-treated controls to determine percent cell viability. The results represent the average and SEM of triplicate determinations.

H1299 = assay: CCK-8 cell viability, single agent; format: cell-based, Human
Method: as §1

MDA-468 = assay: CCK-8 cell viability, single agent; format: cell-based, Human; settings: Homo sapiens
Method: as §1

MDA-436 = assay: CCK-8 cell viability, single agent; format: cell-based, Human; settings: Homo sapiens
Method: as §1

A549 = assay: CCK-8 cell viability, single agent; format: cell-based, Human
Method: as §1

H460 = assay: CCK-8 cell viability, single agent; format: cell-based, Human; settings: for IC50: H460, CCK-8, 72 h, mean ± SD
Method: as §1

MDA-MB-436 = assay: Doxorubicin combination, CCK-8; format: cell-based, Human; settings: BRCA1 mutant MDA-MB-436, 20 µM 3392 pre-treatment 3 h, doxorubicin 72 h
Method: Supplementary Figure S5. Decreased sensitivity to Doxorubicin mediated by Ku-DBi in MDA-436 cells. […] (B) Pre-treatment with vehicle or 20 µM 3392 and media removed after 3 h, prior 72 h doxorubicin treatment after which cell viability was determined by CCK-8. Data are presented as the mean and SEM of triplicate determinations. […]

H460 cells = assay: 3392 and bleomycin combination, CCK-8, SynergyFinder; format: cell-based, Human
Method: as §1

[1] = system: A549 NSCLC adenocarcinoma xenograft; assay: A549 NSCLC xenograft (CDX), intratumoral Ku-DBi with or without IR; format: in vivo, mice; settings: for Ki-67 expression in tumors: IHC and Western blot
Method: The in vivo studies were conducted as approved by the Institutional Animal Care and Use Committee at Indiana University School of Medicine. A549 cells (~2.5 × 10^6) in 50% Matrigel were injected into the hind flanks of 8–10-week-old NOD.Cg-Rag1tm1Mom Il2rgtm1Wjl/SzJ (NRG) mice (IVT, In vivo Therapeutics Core, Indiana University Melvin and Bren Simon Comprehensive Cancer Center, Indianapolis, IN, USA) as previously described. Tumor volumes were monitored by electronic caliper measurement. Mice were randomized into groups of 3 or 4 using a random group generator; 6 different scenarios were generated, and the scenario with the most similar tumor volume averages across groups was selected. Treatments were initiated when tumors were ~600 mm^3. Tumors were administered Ku-DBi (30 µL of 10 mM) or vehicle (30 µL of DMSO) via intratumoral injection 4 h before 5 Gy irradiation of the tumor with a single dose of X-rays (250 kVp; dose rate = 1.4 Gy/min; 2 cm × 2 cm field) under isoflurane anesthesia. […] Mice were sacrificed 2 h post-irradiation (or 2 h post-sham irradiation); tumors were excised and processed for immunohistochemistry (IHC) assays. Cell-free protein extracts were prepared to assess DNA-PKcs autophosphorylation and γ-H2AX levels.
Protein lysates, ranging from 20 to 30 μg, were separated by SDS-PAGE (4–20% Mini Protean TGX Gels, BioRad, Hercules, CA, USA) and transferred onto PVDF membranes (Bio-Rad) through wet transfer. Membranes blocked in 0.5% Tween and 3% BSA in 1× TBS for 1 h were probed with the following primary antibodies: Phospho-DNA PKcs (S2056) (Cat: ab124918, Abcam, Cambridge, UK), total DNA-PKcs (Cat: sc-5282, Santa Cruz Biotechnology, Dallas, TX, USA), and γ-H2AX pS139 (Cat: 613401, BioLegend, San Diego, CA, USA). […] All primary antibodies were prepared with 3% BSA and 0.02% NaN3 in TBS with 0.5% Tween. Goat anti-rabbit or anti-mouse IgG (H + L)–HRP conjugates (Cat: 170-6515 or 170-6516, Bio-Rad) were used as secondary antibodies to detect these proteins. Imaging, densitometric analysis, and quantification of protein expression were performed as previously described.
Excised tumors were fixed in 4% paraformaldehyde (PFA) solution in PBS for 24 h at 4 °C. After fixation, tumors were transferred to 70% ethanol and paraffin embedding. Sectioning was completed by the Indiana University Histology Core at the IU School of Medicine. Representative 3 μm-thick sections for each treatment were stained with H and E (HE; Harris hematoxylin, regressive method) for histologic examination or were processed for Ki-67 IHC immunodetection. Briefly, paraffin-embedded sections were deparaffinized in a xylene series (4 × 3 min) and rehydrated in a series of graded alcohol dilutions (100%, 95%, 70%, and ddH2O, 2 × 2 min each). […]

In the case of `COc1ccc(-c2ccc(/C=C3\C(=O)N(c4cccc(C(=O)O)c4)c4ccccc43)o2)cc1C(=O)Nc1cccc(OC(F)(F)F)c1` [GL-3392], the IC50 (H23; NCI-H23, 72 h, H23, CCK-8, 72 h, mean ± SD) is reported as ~8 µM, the viability at 25 µM (H23; NCI-H23, H23, 25 µM) is reported as 12.7 ± 0.7% and the “Cell viability at the highest concentrations assessed” value (H1299; H1299) is reported as ~ 90%. The viability at 25 µM (H1299; Homo sapiens, NCI-H1299, H1299, 25 µM) was 89.9 ± 10.1%, the IC50 (H1299; Homo sapiens, NCI-H1299, H1299, CCK-8, 72 h, mean ± SD) was > 50 µM and the viability at 25 µM (MDA-468; MDA-468, 25 µM) was 29.4 ± 1.3%. It also gave an IC50 (MDA-468; MDA-468, CCK-8, 72 h, mean ± SD) of 10.4 ± 1.5 µM, a viability at 25 µM (MDA-436; MDA-436, 25 µM) of 43.9 ± 2.6% and an IC50 (MDA-436; MDA-436, CCK-8, 72 h, mean ± SD) of 22.2 ± 1.4 µM. The “Cell viability at the highest concentrations assessed” value (A549; A549) was ~50%, the viability at 25 µM (A549; Homo sapiens, A549, 25 µM) was 46.2 ± 3.8% and the IC50 (A549; Homo sapiens, A549, CCK-8, 72 h, mean ± SD) was > 50 µM. For the same molecule, the IC50 (H460) was 7.7 ± 0.6 µM, the IC50 (H460; Homo sapiens, NCI-H460, 72 h) was ~8 µM and the viability at 25 µM (H460; Homo sapiens, NCI-H460, H460, 25 µM) was 12.3 ± 0.6%. The “Change in doxorubicin sensitivity” value (MDA-MB-436) was “decrease in Dox sensitivity”, the “Type of interaction with bleomycin (HSA and Bliss models)” value (H460 cells; H460, 3392 combined with bleomycin) was “additive interaction” and the inhibition at 5 µM (H460 cells; Homo sapiens, NCI-H460, H460, bleomycin 0 μM, GL-3392 5 μM, read-out: Response matrix for inhibition) was 34%. The inhibition at 10 µM (H460 cells; Homo sapiens, NCI-H460, H460, bleomycin 0 μM, GL-3392 10 μM, read-out: Response matrix for inhibition) was 78.9%, the inhibition at 15 µM (H460 cells; Homo sapiens, NCI-H460, H460, bleomycin 0 μM, GL-3392 15 μM, read-out: Response matrix for inhibition) was 79.8% and the “Ki-67 expression in tumors” value ([1]; 3392 intratumoral plus 5 Gy IR) was “statistically significant decrease in the Ki-67 expression”. For the same molecule, the γ-H2AX in tumors ([1]; 3392 intratumoral plus 5 Gy IR, Western blot) was “further exacerbated in the combination-treated tumors”, the “IR-induced DNA-PKcs autophosphorylation in tumors” value ([1]; intratumoral 30 µL of 10 mM, 4 h before 5 Gy, tumors taken 2 h post-irradiation, Western blot) was “effectively reversed the IR-induced DNA-PKcs autophosphorylation” and the “Ki-67 expression in tumors” value ([1]; single-agent 3392, intratumoral) was “limited effects”.
